Reference: the NIST ThermoML archive (doi:10.1016/j.jct.2008.08.013)

Test: xn = mol fraction of the nth substance listed
Details: 101 kPa, Liquid, Vibrating tube method

Nc1ccccc1 [aniline] + ClCCl
mass density [kg/m3]
Details | 288.15 K | 293.15 K | 298.15 K | 303.15 K
x2 = 0.0218 | 1030.69 | 1025.78 | 1021.79 | 1017.43
x2 = 0.1003 | 1048.42 | 1043.36 | 1039.19 | 1034.68
x2 = 0.2004 | 1072.39 | 1067.17 | 1062.72 | 1057.97
x2 = 0.2507 | 1085.02 | 1079.67 | 1075.06 | 1070.21
x2 = 0.2992 | 1097.6 | 1092.14 | 1087.38 | 1082.37
x2 = 0.3502 | 1111.25 | 1105.64 | 1100.68 | 1095.52
x2 = 0.3985 | 1124.6 | 1118.83 | 1113.68 | 1108.38
x2 = 0.4998 | 1153.99 | 1147.9 | 1142.28 | 1136.65
x2 = 0.5529 | 1170.24 | 1164 | 1158.09 | 1152.21
x2 = 0.6023 | 1185.94 | 1179.46 | 1173.3 | 1167.19
x2 = 0.6504 | 1201.8 | 1195.11 | 1188.66 | 1182.34
x2 = 0.6992 | 1218.48 | 1211.56 | 1204.8 | 1198.22
x2 = 0.7506 | 1236.69 | 1229.48 | 1222.36 | 1215.59
x2 = 0.8003 | 1254.94 | 1247.49 | 1239.98 | 1232.77
x2 = 0.8997 | 1293.47 | 1285.36 | 1277.01 | 1269.11
x2 = 0.9298 | 1305.66 | 1297.3 | 1288.69 | 1280.69
x2 = 0.9505 | 1314.14 | 1305.64 | 1296.8 | 1288.52
x2 = 0.9799 | 1326.37 | 1317.62 | 1308.49 | 1299.98

ClCCl [dichloromethane] + O=[N+]([O-])c1ccccc1
mass density [kg/m3]
Details | 288.15 K | 293.15 K | 298.15 K | 303.15 K
x1 = 0.021 | 1213.16 | 1204.27 | 1199.65 | 1195.1
x1 = 0.1053 | 1219.99 | 1211.21 | 1206.52 | 1201.87
x1 = 0.2003 | 1228.35 | 1219.76 | 1214.95 | 1210.13
x1 = 0.2499 | 1233.02 | 1224.51 | 1219.62 | 1214.69
x1 = 0.3003 | 1238.01 | 1229.63 | 1224.61 | 1219.55
x1 = 0.3521 | 1243.35 | 1235.09 | 1229.95 | 1224.73
x1 = 0.4025 | 1248.78 | 1240.64 | 1235.37 | 1229.98
x1 = 0.4492 | 1254.01 | 1245.99 | 1240.56 | 1235.01
x1 = 0.4975 | 1259.65 | 1251.71 | 1246.14 | 1240.37
x1 = 0.5512 | 1266.13 | 1258.32 | 1252.51 | 1246.51
x1 = 0.5995 | 1272.2 | 1264.47 | 1258.48 | 1252.21
x1 = 0.6495 | 1278.7 | 1271.04 | 1264.8 | 1258.26
x1 = 0.6999 | 1285.45 | 1277.91 | 1271.39 | 1264.55
x1 = 0.7496 | 1292.42 | 1284.93 | 1278.12 | 1270.91
x1 = 0.799 | 1299.65 | 1292.18 | 1285 | 1277.46
x1 = 0.8501 | 1307.44 | 1299.97 | 1292.47 | 1284.49
x1 = 0.8975 | 1315.12 | 1307.6 | 1299.69 | 1291.27
x1 = 0.9798 | 1329.58 | 1321.91 | 1313.24 | 1303.98
